Measured values reported in patent US20250041307A1, “Uses of Bicyclic Compounds for the Treatment of Diseases” (Athira Pharma, Inc., priority 2021, published 2025).

What was measured:
Type in all cases: cell-based
MDCK cells = assay: Cell scattering behavior assay; design: key: − indicates that the compound failed to significantly promote cell scattering behavior; + indicates maximum potency at or above 100 nM; ++ indicates maximum potency at or above 10 nM; +++ indicates maximum potency at or above 1 nM; ++++ indicates maximum potency at or above 0.1 nM; settings: with 5 ng/mL HGF, 24 hours, normalized particle count compared to HGF treatment alone
Procedure: MDCK cells were grown under normal conditions and observed to spontaneously form tight colonies as they proliferate. MDCK cells respond to HGF treatment by moving away from each other (scattering), which is quantified to assess the amount of HGF/MET activation in the cell population. In this experiment, MDCK cells were plated in a 96-well format, treated with HGF and exemplary compounds, fluorescently stained, imaged in large fields, and scattering behavior was quantified. Quantification was determined by analyzing the number of continuous groups of cells compared to the total stained area imaged (normalized particle counts).
MDCK cells were plated at low density in black-walled imaging plates and allowed to attach overnight at 37° C. and 5% CO2 in DMEM+10% FBS. Cells were then starved to 2 hours in DMEM without FBS (“starve media”). Samples containing exemplary compounds were prepared in DMEM without FBS and included 5 ng/mL HGF protein (“treatment media”). A control curve was also prepared for each plate using HGF concentrations of 0, 5, 10, and 20 ng/mL. Starve media was replaced with treatment media and cells were incubated for 24 hours at 37° C. and 5% CO2.
After incubation, cells were fixed by replacing treatment media with cold ethanol and incubating for 20 minutes at 4° C. Cells were then rehydrated by washing with PBS and then with stain solution (fluorescent wheat germ agglutinin; WGA488 at 20 μg/mL in PBS). Cells were incubated with stain solution 30 minutes at room temperature after which stain solution was replaced with fresh PBS.
Fields of cells were imaged using an iCyte high content imager in the green wavelength. Images were converted to binary and analyzed for particle size and particle count. For the purpose of analysis, an individual cell touching no other cells or separated colonies of cells were identified as particles, and particle counts were normalized by the total signal area to account for differences in cell number. […] Compound potency was assessed by statistical increase in normalized particle count compared to HGF treatment alone.

HGF/MET system = assay: Phospho-MET ELISA; design: key: − indicates that the compound failed to significantly augment MET phosphorylation; + indicates maximum potency at or above 100 nM; ++ indicates maximum potency at or above 10 nM; +++ indicates maximum potency at or above 1 nM; ++++ indicates maximum potency at or above 0.1 nM; settings: HEK293 cells; with 1 ng/mL recombinant HGF; 15 minutes; augmentation of MET phosphorylation (pMET ELISA)
Procedure: Compounds were screened for potency towards the HGF/MET system using phospho-MET (pMET) ELISA kits (Cell Signaling). pMET levels were detected in samples having low (1 ng/mL) and high (10 ng/mL) concentrations of HGF.
HEK293 cells were prepared by passage into 6-well multi-plates and grown at 37° C. at 5% CO2 in DMEM+10% FBS until approximately 90% confluent. Cells were then starved for at least 8 hours in serum-free growth media.
Exemplary compounds were prepared in DMEM+0.1% FBS, diluted and added to treatment media with 1 ng/mL recombinant HGF protein (R&D Systems). Cells were incubated in triplicate at 37° C. and 5% CO2 for 15 minutes. Samples were then treated with 180 μL ice-cold RIPA (radioimmunoprecipitation assay) buffer and cells were lysed on ice for 15 minutes. Lysates were cleared by centrifugation at 16,000-g for 15 minutes and the supernatant was retained. Samples were normalized using a BCA assay of lysates to determine protein concentrations across the samples.
Between 50 and 100 μg total protein lysate was loaded into ELISA wells in pMET Sandwich ELISA kit (Cell Signaling Catalog #7227C), ensuring equal protein load in each well. The ELISA was processed according to manufacturer's instructions. After color developed, absorbance was read on an optical plate reader at 450 nm.
Potency measurements were determined using peak efficacy by scaling test compound dose treatments along a scale of 1-10 between 1 ng/mL and 10 ng/mL HGF doses according to the following formula: […]
where y is the normalized data-point, x is the raw data point, A is the mean HGF at 1 ng/mL, and B is the mean HGF at 10 ng/mL.

[1] = tested on: Rat primary cortical neuron cultures; assay: Protection from neurotoxicity in vitro (Cell Titer-Glo viability); settings: 24 hours, with HGF 5 ng/ml
Procedure: HGF/MET signaling activation is expected to protect cells, including neurons, from cell death. […] Hydrogen peroxide (H2O2) treatment produces toxic oxidative stress. Bacteria-derived lipopolysaccharide (LPS) treatment induces inflammatory cell death. Treatment with excess glutamate (Glut) produces excitotoxicity in neuron cultures. Treatment with 1-methyl-4-phenylpyridinium (MPP^+) causes cell death by inhibition of mitochondrial function.
Rat primary cortical neuron cultures were grown at 37° C., 5% CO2 in Complete Neurobasal Medium supplemented with B27/GDNF/BDNF containing 10% FBS until maturity and were then seeded in 384-well plate at 5,000 cells/well. Cultures were then treated for 15 minutes with 1 uM, 100 nM, 10 nM, 1 nM, or 0.1 nM of compound 1a. Cells were then subjected to individual conditional insults for 24 hours at the following concentrations: H2O2 at 1 uM, LPS at 1 uM, glutamate at 25 uM, MPP+ at 500 uM. All treatments contained recombinant human HGF (R&D Systems) at a concentration of 5 ng/ml.
To quantify neuroprotection, cell viability was measured with the Cell Titer-Glo Luminescent Cell Viability Assay (Promega, Cat #G7571). Data was normalized to DMSO+HGF control set at 100% cell viability. Statistical analyses for each group (n=4) were performed using one-way ANOVA with Tukey's Multiple comparison test.
Data is reported as statistical significance vs. insult control, with NS=not significant, +=p<0.05, ++=p<0.01, and +++=p<0.001.

Row | Compound | Potency (MDCK cells) | Potency (HGF/MET system) | Insult effect (% viability vs vehicle) ([1]; 1 uM) [%] | Insult effect (% viability vs vehicle) ([1]; 25 uM) [%]
1 | CCC(C)CN1CC2N(C(=O)c3ccc(Cl)cc3)CCC(=O)N2C(C)C1=O (stereo not shown) [Compound 10, 1-(4-chlorobenzoyl)-6-methyl-8-(2-methylbutyl)hexahydro-4H-pyrazino[1,2-a]pyrimidine-4,7(6H)-dione] | − | − |  | 
2 | CC1C(=O)N(CC2CCCC2)CC2N(C(=O)c3ccc(OC(F)F)cc3)CCC(=O)N12 (stereo not shown) [Compound 13] | − | − |  | 
3 | CC1C(=O)N(CC2CCCC2)CC2N(C(=O)c3ccc(C(F)(F)F)cc3)CCC(=O)N12 (stereo not shown) [Compound 15] | − | − |  | 
4 | CC1C(=O)N(CC2CCC2)CC2N(C(=O)c3ccc(C(F)(F)F)cc3)CCC(=O)N12 (stereo not shown) [Compound 16] | − | − |  | 
5 | C=CCCN1CC2N(C(=O)c3ccc(OC(F)F)cc3)CCC(=O)N2C(C)C1=O (stereo not shown) [Compound 18] | − | − |  | 
6 | CCCCN1CC2N(C(=O)c3ccc(C(F)(F)F)cc3)CCC(=O)N2C(C)C1=O (stereo not shown) [Compound 21] | − | − |  | 
7 | CC(C)CN1CC2N(C(=O)c3ccc(C(F)(F)F)cc3)CCC(=O)N2C(C)C1=O (stereo not shown) [Compound 23] | − | − |  | 
8 | CC(C)N1CC2N(C(=O)c3ccc(C(F)(F)F)cc3)CCC(=O)N2C(C)C1=O (stereo not shown) [Compound 24] | − | − |  | 
9 | CC1C(=O)N(CCc2ccco2)CC2N(C(=O)c3ccc(OC(F)F)cc3)CCC(=O)N12 (stereo not shown) [Compound 25] | − | − |  | 
10 | CC1C(=O)N(CCc2cccs2)CC2N(C(=O)c3ccc(OC(F)F)cc3)CCC(=O)N12 (stereo not shown) [Compound 26] | − | − |  | 
11 | CC1C(=O)N(CC2CCCO2)CC2N(C(=O)c3ccc(OC(F)F)cc3)CCC(=O)N12 (stereo not shown) [Compound 27] |  | − |  | 
12 | CC1C(=O)N(CCc2ccccc2)CC2N(C(=O)c3ccc(OC(F)F)cc3)CCC(=O)N12 (stereo not shown) [Compound 28] | − | − |  | 
13 | CC1C(=O)N(CCc2ccncc2)CC2N(C(=O)c3ccc(OC(F)F)cc3)CCC(=O)N12 (stereo not shown) [Compound 29] |  | − |  | 
14 | CC1C(=O)N(CCC2CC2)CC2N(C(=O)c3ccc(OC(F)F)cc3)CCC(=O)N12 (stereo not shown) [Compound 31] | − | − |  | 
15 | COCCN1CC2N(C(=O)c3ccc(OC(F)F)cc3)CCC(=O)N2C(C)C1=O (stereo not shown) [Compound 32] | − | − |  | 
16 | COCCCN1CC2N(C(=O)c3ccc(OC(F)F)cc3)CCC(=O)N2C(C)C1=O (stereo not shown) [Compound 33] | − | − |  | 

Row | Compound | Potency (MDCK cells) | Potency (HGF/MET system) | Insult effect (% viability vs vehicle) ([1]; 1 uM) [%] | Insult effect (% viability vs vehicle) ([1]; 25 uM) [%]
17 | CC1C(=O)N(CCO)CC2N(C(=O)c3ccc(OC(F)F)cc3)CCC(=O)N12 (stereo not shown) [Compound 34, 1-(4-(difluoromethoxy)benzoyl)-8-(2-hydroxyethyl)-6-methylhexahydro-4H-pyrazino[1,2-a]pyrimidine-4,7(6H)-dione] | − | − |  | 
18 | CC1C(=O)N(CCN)CC2N(C(=O)c3ccc(OC(F)F)cc3)CCC(=O)N12 (stereo not shown) [Compound 35, 8-(2-aminoethyl)-1-(4-(difluoromethoxy)benzoyl)-6-methylhexahydro-4H-pyrazino[1,2-a]pyrimidine-4,7(6H)-dione] | − | − |  | 
19 | CC1C(=O)N(CCS(C)(=O)=O)CC2N(C(=O)c3ccc(OC(F)F)cc3)CCC(=O)N12 (stereo not shown) [Compound 36] | − | − |  | 
20 | CC1C(=O)N(CCC2CCCC2)CC2N(Cc3ccc(OC(F)F)cc3)CCC(=O)N12 (stereo not shown) [Compound 38] |  | − |  | 
21 | C=CCCN1CC2N(Cc3ccc(OC(F)F)cc3)CCC(=O)N2C(C)C1=O (stereo not shown) [Compound 39] | − | − |  | 
22 | CC1C(=O)N(CCC2CCC2)CC2N(Cc3ccc(OC(F)F)cc3)CCC(=O)N12 (stereo not shown) [Compound 40] |  | − |  | 
23 | CCCCN1CC2N(Cc3ccc(OC(F)F)cc3)CCC(=O)N2C(C)C1=O (stereo not shown) [Compound 41] | − | − |  | 
24 | CCC(C)CN1CC2N(Cc3ccc(C(F)(F)F)c(Cl)c3)CCC(=O)N2C(C)C1=O (stereo not shown) [Compound 43] | − | − |  | 
25 | CCC(C)CN1CC2N(Cc3c[nH]c4ccccc34)CCC(=O)N2C(C)C1=O (stereo not shown) [Compound 44] | − | − |  | 
26 | CC1C(=O)N(CCC2CCC2)CC2N(Cc3ccc(F)cc3)CCC(=O)N12 (stereo not shown) [Compound 45, 8-(2-cyclobutylethyl)-1-(4-fluorobenzyl)-6-methylhexahydro-4H-pyrazino[1,2-a]pyrimidine-4,7(6H)-dione] |  | − |  | 
27 | CC1C(=O)N(CCC2CCCC2)CC2N(Cc3ccc(F)cc3)CCC(=O)N12 (stereo not shown) [Compound 46, 8-(2-cyclopentylethyl)-1-(4-fluorobenzyl)-6-methylhexahydro-4H-pyrazino[1,2-a]pyrimidine-4,7(6H)-dione] | − | − |  | 
28 | CCC(C)CN1CC2N(Cc3ccc(OC(F)F)cc3)CCC(=O)N2C(CF)C1=O (stereo not shown) [Compound 47, 1-(4-(difluoromethoxy)benzyl)-6-(fluoromethyl)-8-(2-methylbutyl)hexahydro-4H-pyrazino[1,2-a]pyrimidine-4,7(6H)-dione] |  | − |  | 
29 | CCC(C)CN1CC2N(Cc3ccc(C(F)(F)F)cc3)CCC(=O)N2C(CF)C1=O (stereo not shown) [Compound 48, 6-(fluoromethyl)-8-(2-methylbutyl)-1-(4-(trifluoromethyl)benzyl)hexahydro-4H-pyrazino[1,2-a]pyrimidine-4,7(6H)-dione] |  | − |  | 
30 | CCC(C)CN1CC2N(Cc3ccc(OC(F)F)cc3)CCC(=O)N2C(CC(N)=O)C1=O (stereo not shown) [Compound 50, 2-(1-(4-(difluoromethoxy)benzyl)-8-(2-methylbutyl)-4,7-dioxooctahydro-2H-pyrazino[1,2-a]pyrimidin-6-yl)acetamide] | − | − |  | 
31 | OO [Compound H2O2, Hydrogen peroxide, reference compound] |  |  | 64.23 | 
32 | N[C@@H](CCC(=O)O)C(=O)O [Glutamate, glutamate, reference compound] |  |  |  | 49.55
